# Experimental data from US5834492A, “Water soluble orally effective iron chelator” (Jacobus Pharmaceutical Co., priority 1997, dated 1998).
# Several values for one entry are separate records, joined by “and”; a condition that tells them apart may be missing. Identical values can stand only once. Entries after “also recorded” stand apart in the source; their conditions may differ. Counter-ions that a name gives are not always drawn. Like-named read-outs stand apart in the source and are kept apart here.
# Experiments:
# [1] = Solubility in ethanol or acetonitrile; format: physicochemical
# Method: PIH has very limited solubility in water and ethanol, and in fact, to solubilize 28.6 grams of PIH would require 30,000 cc of absolute ethanol. Nevertheless, the aforesaid molar concentrations were used to produce a suspension to which was added the ethereal HCI solution.
# As a result of applicant's work, this procedure raises even more questions of operability than the immediately preceding one, since the acetonitrile solubility of the precipitate obtained after treatment of an authentic sample of PIH with ethereal HCI, is virtually nil. Specifically, attempts to solubilize the product succeeded in dissolving only 40 ma of material per 500 cc of hot acetonitrile--a ratio of 1 gram per 12.5 liters of acetonitrile (a ratio of […]) and no precipitate was obtained after addition of dry ether--even upon cooling the solution. Applicants were unable to liberate any product from the recrystallization system disclosed in U.S. 2,810,725.
# This cannot be accomplished since the solubility of PIH in ethanol is approximately 1 mg/mL and would require a volume of 30,000 cc for dissolution as described and not 500 cc.
# There was utilized a suspension of 57.2 mg/cc (1.43 g, 5 mMol in 25 cc absolute ethanol) to which were added two equivalents (10 mmoles) of 4 N ethereal HCI (2.5 cc) and stirred for one hour. The light yellow starting material became a copious off-white suspension. This was filtered and dried to give 1.68 g of a solid with melting point 250°-252°C. (dec) with discoloration beginning at 240° C. An authentic sample of PIH dihydrochloride, synthesized according to Example 1 supra, melts at 255°-257° C.
# [2] = below pH 3; chromatographic investigations; cited from earlier work
# [3] = continuous infusion in solution; rats; cited from earlier work
# [4] = Water / aqueous solubility at 25 °C; format: physicochemical
# [5] = Human studies of oral PIH: iron excretion, toxicity, palatability; format: in vivo; conditions: in the mouth
# Excerpt: There has, heretofore been no convenient, safe and effective orally administered chelator that has been developed for clinical use.
# [6] = noted by Sah 1953; cited from earlier work
# [7] = cited from earlier work
# [8] = cited from earlier work; remark: listed apart in the source
# [9] = Iron complexation (chelation); conditions: aqueous solutions in vitro and in vivo
# [10] = Stability of the solid to light and anhydrous heat; format: physicochemical
# [11] = Stability/degradation in aqueous medium of given pH; format: physicochemical; conditions: for degraded at 3 h: aqueous medium, read-out: degradation after three hours
# [12] = Total daily iron excretion in iron overloaded patients (enteric granules or glycine-buffered capsules); conditions: patients with iron overload
# Method: Five human subjects were administered PIHDH (PIH(HCI)2) as either enteric coated granules at 546 mg three times daily representing the lowest dose tested at 20 mg/kg per day.
# [13] = Biliary iron excretion in iron-overloaded rats after gavage, bile duct cannulated; format: in vivo, Male Sprague-Dawley rats; conditions: gavage 100 mg/kg, versus PIH equivalent dosage
# Method: Measurement of the bioefficiency of iron chelators have been carried out in rats using the methods of Brittenham supra and Park et al,(C. Park, B. R. Bacon, G. M. Brittenham and N. Tas. Lab Invest. 57:555-63 (1987).
# Male Sprague-Dawley rats weighing approximately 200 g were housed in cages and randomly assigned to three groups containing at least 6 animals. The groups received (i) one ml of saline alone administered by gavage (ii) 1 mL saline with PIH as the free base, 100 mg/kg body weight, added just prior to administration by gavage and (iii) 1 mL saline with PIHDH, 100 mg/kg body weight, added just prior to administration by gavage. The doses of chelators tested are chosen to provide direct comparisons with previous assay data. Animals receiving the chelators or saline by gavage receive doses 45 minutes prior to surgery. Animals are placed under anesthesia and the bile duct cannulated to permit continuous collection of bile during the assay time period. The bile is collected at half-hour intervals for 5 or 6 hours and the iron content determined spectrophotometrically, using bathophen-anthroline sulfonate for color development as published by Pippard et al, (M. J. Pippard, D. K. Johnson and C. A. Finch. Blood. 58:685-92 (1981)). […]
# [14] = water, 25 °C (FIG. 16), read-out: water solubility
structure (smiles),measurement,setting,value
"Cc1ncc(CO)c(/C=N/NC(=O)c2ccncc2)c1O [PIH, 3-hydroxy-5-hydroxy-methyl-2-methyl-4-pyridinylcarboxaldehyde 4' pyridinecarboxylic acid hydrazone]",volume of absolute ethanol required to dissolve 28.6 g PIH,[1]; absolute ethanol,"30,000 cc and 30.000 cc"
same,solubility in ethanol,[1]; ethanol,approximately 1 mg/mL
same,instability under acidic conditions,[2],dissolution below pH 3 can lead to decomposition
same,iron excretion compared to desferrioxamine,[3],quantitatively similar iron excretion
same,water solubility,"[4]; water, 25 °C (FIG. 16)",0.14 mg/mL
same,solubility,[4]; [14],0.14 mg/mL
same,taste,[5],unpleasant taste
same,"water solubility, in words (literature)",[6],very low water solubility
same,absorption after oral administration,[7],not fully absorbed in vivo after oral administration
same,PIH crystals in feces,"[7]; treated animals/subjects, oral",presence of PIH crystals in the feces of treated animals; also recorded: crystals actually visible in feces of treated subjects
same,iron excretion compared with subcutaneously injected desferrioxamine,"[8]; oral PIH at three times the molar rates, preliminary human studies",less than half of that expected with subcutaneously injected desferrioxamine
same,toxicity at doses needed for sufficient iron excretion,"[8]; oral capsule, >60 mg/kg, people",toxicity characterized by elevated hepatic enzymes
same,oral dose needed to elicit sufficient iron excretion,"[8]; oral capsule, people",> 60 mg/kg
same,oral efficacy / iron removal in humans,"[8]; oral, humans",poor oral efficacy; also recorded: inadequate levels of iron are removed in humans
same,palatability,"[8]; oral, phase I clinical trials",highly unpalatable with a lingering unpleasant taste and oral sensation
"Cc1ncc(CO)c(C=NNC(=O)c2ccncc2)c1O [PIHDH, 3-hydroxy-5-(hydroxy-methyl)-2-methyl-4-pyridinecarboxaldehyde-4' pyridinecarboxylic acid hydrazone dihydrochloride]",ability to complex iron,[9],preserves its ability to complex iron in aqueous solutions in vitro and in vivo
same,stability of crystals,[10],stable to light and anhydrous heat
same,degraded at 3 h,"[11]; pH 1.29, 3 h",44.1%
same,degraded at 3 h,"[11]; pH 2.78, 3 h",17.7%
same,decomposition when buffered,[11]; buffered above 3.0 to 7.0,virtually little to virtually no decomposition
same,degradation after three hours,"[11]; pH 6.8, 3 h",no degradation
same,water solubility relative to PIH (times more water soluble),"[4]; PIHDH versus PIH base, dihydrochloride",450 times and > 450 times
same,solubility,[4]; [14],63 mg/mL
same,"water solubility, in words","[4]; water, dihydrochloride",better water solubility than the free base and its related hydrated species
same,absorption of enteric granules or buffered capsules,[12],adequately absorbed
same,total biliary iron excretion relative to PIH (percent),[13],250%
same,total biliary iron excretion relative to PIH (times greater),[13],2.5 times
Cc1ncc(CO)c(C=NNC(=O)c2ccncc2)c1O [Pyridoxal isonicotinoyl hydrazone isethionate],solubility,"[4]; 0.1 n hcl, read-out: solubility in 0.1N HCl",36 mg/mL
same,solubility,"[4]; water, read-out: water solubility",2.7 mg/mL
"Cc1ncc(CO)c(C=NNC(=O)c2ccncc2)c1O [hydrochloride-1.5 hydrate of PIH, 3-hydroxy-5-(hydroxymethyl) -2-methyl-4-pyridinecarboxaldehyde-4' pyridin ecar-boxylic acid hydrazone monohydrochloride trihemihydrate]",water solubility,"[4]; water, 25 °C (FIG. 16)",34 mg/mL
same,"water solubility, in words","[4]; water, listed as monohydrochloride 1.5 hydrate",slower solubilization
Cc1ncc(CO)c(C=NNC(=O)c2ccncc2)c1O [product],"solubility in acetonitrile, in words",[1]; acetonitrile,virtually nil
same,solubility of product in acetonitrile,[1]; acetonitrile,less than 0.1 mg/mL
same,amount of material dissolved per 500 cc hot acetonitrile,[1]; per 500 cc hot acetonitrile,40 ma
